# US20050049294A1, “Methods of using [3.2.0] heterocyclic compounds and analogs thereof” (priority 2003, published 2005)
# pEC50: −log10 of the molar value. Read-outs that look alike come from different tables or passages of the source.
# What was measured:
# U266 cells = experiment: Cell growth inhibition (resazurin, 48 hours), U266; conditions: for pEC50: U266; for EC50: U-266, read-out: U266 EC50 (nM), Table 15, mean EC50
# NCI-H292 cells = experiment: Cell growth inhibition (resazurin, 48 hours), NCI-H292; type: cell-based, human; conditions: Homo sapiens, NCI-H292
# [1] = test system: NF-κB-mediated luciferase activity in HEK293 NF-κB/Luc cells; experiment: NF-κB-mediated luciferase reporter gene assay; type: cell-based, human; conditions: for pEC50: Homo sapiens, HEK293, representative experiment, Example 43 (FIG. 44, 45), read-out: calculated EC50 to inhibit NF-κB inducible luciferase activity; for luciferase activity upon TNF-α stimulation: pretreatment of NF-κB/Luc 293 cells
# Protocol: (§1) The HEK293 NF-κB/luciferase reporter cell line is a derivative of the human embryonic kidney cell line (ATCC; CRL- 1573) and carries a luciferase reporter gene under the regulation of 5×NF-κB binding sites. […] When performing the luciferase assay, the DMEM basal medium was replaced with phenol-red free DMEM basal medium and the G418 was omitted.
# For NF-κB-mediated luciferase assays, HEK293 NF-κB/luciferase cells were seeded at 1.5×10^4 cells/well in 90 μl phenol-red free DMEM complete medium into Corning 3917 white opaque-bottom tissue culture plates. […] This dilution series was further diluted 40× in appropriate culture medium and ten μl aliquots were added to the test wells in triplicate resulting in final test concentrations ranging from 1 μM to 320 pM. […] For Formula II-19, a 127 μM starting dilution was made in 100% DMSO and the final test concentrations ranging from 317 nM to 0.1 nM. […] After 1 hr pretreatment, 10 μl of a 50 ng/ml TNF-α solution, prepared in the phenol-red free DMEM medium was added, and the plates were incubated for an additional 6 hr.
# NF-κB inducible luciferase activity was measured at 6 hours.
# as §1, with “CRL-1573)” for “CRL- 1573)”
# For NF-κB-mediated luciferase assays, HEK293 NF-κB/luciferase cells were seeded at 1.5×10^4 cells/well in 90 μl phenol-red free DMEM complete medium into Corning 3917 white opaque-bottom tissue culture plates. For Formula II-2, Formula II-4 and Formula II-5A, a 400 μM starting dilution was made in 100% DMSO and this dilution was used to generate a 8-point half log dilution series. This dilution series was further diluted 40× in appropriate culture medium and ten μl aliquots were added to the test wells in triplicate resulting in final test concentrations ranging from 1 μM to 320 pM. […] After 1 hr pretreatment, 10 μl of a 50 ng/ml TNF-α solution, prepared in the phenol-red free DMEM medium was added, and the plates were incubated for an additional 6 hr.
# The relative luciferase units (RLU) were measured by using a Fusion microplate fluorometer (Packard Bioscience).
# RPMI 8226 cells = experiment: Cell growth inhibition (resazurin, 48 hours), RPMI 8226; conditions: for pEC50: RPMI 8226; for EC50: RPMI-8226, read-out: RPMI 8226 EC50 (nM), Table 15, mean EC50
# [2] = test system: LeTx-induced cytotoxicity of RAW264.7 cells; experiment: cells; conditions: Mus musculus, RAW264.7, read-out: EC50 (nM), inhibition of RAW 264.7 cell cytotoxicity mediated by anthrax lethal toxin
# MDA-MB-231 cells = experiment: Cell growth inhibition (resazurin, 48 hours), MDA-MB-231; type: cell-based; conditions: Homo sapiens, MDA-MB-231
# [3] = target: T1, trypsin-like activity of purified rabbit 20S proteasomes (Oryctolagus cuniculus, UniProt G1SWK8); experiment: biochemical
# T1 sequence (G1SWK8 1-271): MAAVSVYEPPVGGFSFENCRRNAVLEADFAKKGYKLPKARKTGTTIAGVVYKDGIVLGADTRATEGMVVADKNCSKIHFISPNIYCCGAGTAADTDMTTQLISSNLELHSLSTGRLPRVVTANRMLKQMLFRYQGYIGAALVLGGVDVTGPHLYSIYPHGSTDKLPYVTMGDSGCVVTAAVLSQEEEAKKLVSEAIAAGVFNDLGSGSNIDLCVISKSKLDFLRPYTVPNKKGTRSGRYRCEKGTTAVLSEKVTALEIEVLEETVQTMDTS
# PC-3 cells = experiment: Cell growth inhibition (resazurin, 48 hours), PC-3; type: cell-based, human; conditions: Homo sapiens, PC-3
# [4] = target: PGPH (caspase-like) activity of rabbit muscle 20S proteasomes (Oryctolagus cuniculus, UniProt A0A5F9DQW2); experiment: Inhibition of caspase-like (PGPH) activity of 20S proteasome (Z-LLE-AMC); type: biochemical; conditions: Table 3; mean EC50; purified rabbit 20S proteasomes
# PGPH (caspase-like) activity of rabbit muscle 20S proteasomes, sequence (A0A5F9DQW2 1-212): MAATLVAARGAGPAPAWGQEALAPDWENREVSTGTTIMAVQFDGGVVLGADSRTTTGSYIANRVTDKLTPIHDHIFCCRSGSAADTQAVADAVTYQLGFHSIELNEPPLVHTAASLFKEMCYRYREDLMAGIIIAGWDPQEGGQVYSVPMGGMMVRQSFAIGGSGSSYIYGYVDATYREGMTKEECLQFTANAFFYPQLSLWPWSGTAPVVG
# Protocol: A commercially available fluorogenic substrate specific for the PGPH activity was used instead of the chymotrypsin substrate supplied in the proteasome assay kit described above.
# The substrate Z-LLE-AMC was prepared as a 20 mM stock solution in DMSO, stored at −20° C. The source of the proteasomes was the commercially available kit from Calbiochem (Cat. #539158). As with the chymotrypsin substrate, the proteasome can cleave Z-LLE-AMC into Z-LLE and free AMC. The activity can then be determined by measuring the fluorescence of the released AMC (λex=390 nm and λem=460 nm). The proteasomes were activated with SDS and held on ice as per manufacturer's recommendation. […] The series was diluted 20-fold with assay buffer and preincubated with the proteasomes as described for the chymotrypsin-like activity. After addition of substrate, the samples were incubated at 37° C., and release of the fluorescent AMC was monitored in a fluorimeter. All data were collected and plotted as the mean of triplicate points. […] As before, the model chosen was a sigmoidal dose-response, with a variable slope.
# [5] = target: T2, chymotrypsin-like activity of rabbit muscle 20S proteasomes (Oryctolagus cuniculus, UniProt G1T4Q9); experiment: Inhibition of chymotrypsin-like activity of purified rabbit muscle 20S proteasome (suc-LLVY-AMC); type: biochemical
# T2 sequence (G1T4Q9 1-263): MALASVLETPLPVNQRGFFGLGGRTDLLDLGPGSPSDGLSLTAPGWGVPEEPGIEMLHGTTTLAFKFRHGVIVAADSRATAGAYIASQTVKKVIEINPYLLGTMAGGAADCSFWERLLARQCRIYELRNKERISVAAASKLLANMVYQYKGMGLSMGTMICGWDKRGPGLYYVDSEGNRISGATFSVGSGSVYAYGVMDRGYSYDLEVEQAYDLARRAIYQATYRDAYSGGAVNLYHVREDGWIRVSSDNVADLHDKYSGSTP
# Protocol: This peptide substrate is specific for the chymotrypsin-like enzyme activity of the proteasome.
# Omuralide was prepared as a 10 mM stock in DMSO and stored in 5 μL aliquots at −80° C. […] The assay measures the hydrolysis of Suc-LLVY-AMC into Suc-LLVY and AMC. The released coumarin (AMC) was measured fluorometrically by using λex=390 nm and λem=460 nm. The assays were performed in a microtiter plate (Corning 3904), and followed kinetically with measurements every five minutes. The instrument used was a Thermo Lab Systems Fluoroskan, with the incubation chamber set to 37° C. The assays were performed according to the manufacturer's protocol, with the following changes. The proteasome was activated as described with SDS, and held on ice prior to the assay. […] Ten microliters of each dose were added in triplicate to the assay plate, and 190 μL of the activated proteasome was added and mixed. The samples were pre-incubated in the Fluoroskan for 5 minutes at 37° C. Substrate was added and the kinetics of AMC were followed for one hour.
# [6] = target: T1, trypsin-like activity of purified rabbit 20S proteasomes; conditions: under the conditions tested
# HT-29 cells = experiment: Cell growth inhibition (resazurin, 48 hours), HT-29; type: cell-based; conditions: Homo sapiens, HT-29
# [7] = Homo sapiens, RPMI-8226, Table 13
# [8] = Table 3, mean EC50, purified rabbit 20S proteasomes, read-out: EC50 Values, Chymotrypsin-like
# [9] = representative experiment, Example 44 (FIG. 46, 47), read-out: EC50, chymotrypsin-like activity of the proteasome
SMILES,"pEC50 (U266 cells; Homo sapiens, U-266, Table 13)",EC50 (U266 cells; Homo sapiens) [nM],pEC50 (U266 cells; Table 13),luciferase activity upon TNF-α stimulation [1],pEC50 (RPMI 8226 cells; [7]),EC50 (RPMI 8226 cells; Homo sapiens) [nM],pEC50 (RPMI 8226 cells; Table 13),EC50 [2] [nM],pEC50 [3],pEC50 [4],"pEC50 [5, 8]",inhibit the trypsin-like activity of the 20S proteasome [6],also measured
C[C@@]12OC(=O)[C@]1([C@@H](O)[C@H]1CCC[C@H]3O[C@@H]13)NC(=O)[C@@H]2CCCl [Formula II-5A],8.00,10,8.05,dose-dependent decrease,7.44,33,7.54,3,7.05,6.31,8.19,able to inhibit,"pEC50 (NCI-H292 cells; Table 13, read-out: EC50): 7.05; pEC50 [1]: 7.52; pEC50 (MDA-MB-231 cells; Table 13, read-out: EC50): 7.18; pEC50 (PC-3 cells; Table 13, read-out: EC50): 7.01; pEC50 [5, 9]: 8.22; pEC50 (HT-29 cells; Table 13, read-out: EC50): 7.07"
C[C@@]12OC(=O)[C@]1([C@@H](O)[C@H]1CCC[C@@H]3O[C@H]13)NC(=O)[C@@H]2CCCl [Formula II-5B],6.93,115,6.95,dose-dependent decrease,6.49,327,6.48,45,6.13,5.48,7.06,able to inhibit,"pEC50 (NCI-H292 cells; Table 13, read-out: EC50): < 4.70; pEC50 [1]: 6.58; pEC50 (MDA-MB-231 cells; Table 13, read-out: EC50): 5.98; pEC50 (PC-3 cells; Table 13, read-out: EC50): 5.88; pEC50 [5, 9]: 7.06; pEC50 (HT-29 cells; Table 13, read-out: EC50): 5.97"
CC12OC(=O)C1(C(=O)C1C=CCCC1)NC(=O)C2CCCl (stereo not shown) [Formula II-13C],,> 20000,,,,> 20000,,> 330,4.97,< 4.70,5.09,able to inhibit,
C[C@@]12OC(=O)[C@]1([C@@H](O)[C@@H]1C=CCCC1)NC(=O)[C@@H]2CCI [Formula II-19],8.49,3.3,8.47,dose-dependent decrease,8.23,6.5,8.15,,7.89,6.24,8.52,able to inhibit,"pEC50 (NCI-H292 cells; NCI-H292, Table 13): 7.51; pEC50 (MDA-MB-231 cells): 7.77; pEC50 (PC-3 cells): 7.57; pEC50 (HT-29 cells): 7.89"
C[C@H]1C(=O)N[C@@]2([C@@H](O)[C@@H]3C=CCCC3)C(=O)O[C@@]12C [Formula II-20],,3810,,dose-dependent decrease,,10500,,,6.50,5.85,8.30,able to inhibit,
C[C@@]12OC(=O)[C@]1([C@@H](O)[C@@H]1C=CCCC1)NC(=O)[C@@H]2CCO [Formula II-21],,,,dose-dependent decrease,,,,,6.14,5.59,8.15,able to inhibit,
CCC(=O)OCC[C@H]1C(=O)N[C@@]2([C@@H](O)[C@@H]3C=CCCC3)C(=O)O[C@@]12C [Formula II-22],,,,dose-dependent decrease,,,,,6.51,5.89,8.30,able to inhibit,
CC[C@@]12OC(=O)[C@]1([C@@H](O)[C@@H]1C=CCCC1)NC(=O)[C@@H]2CCCl [Formula II-24C],,,,dose-dependent decrease,,,,,5.49,< 4.70,5.66,able to inhibit,
C[C@@]12OC(=O)[C@]1([C@@H](O)[C@H]1CCC[C@H](Cl)[C@H]1O)NC(=O)[C@@H]2CCCl [Formula IV-3C],,8020,,,,> 20000,,> 330,,< 4.70,5.11,,
